# Measurements as given in patent US20070281992A1, “COMBINATION OF GYRASE B INHIBITORS AND PROTEIN SYNTHESIS INHIBITORS AND USES THEREOF” (priority 2006, published 2007).
# Read-outs that look alike come from different tables or passages of the source.
# Legend:
# Assay type in all cases: cell-based
# [1] = test system: Unconfirmed Vancomycin-intermediate Staphylococcus epidermidis Isolates; experiment: MIC assay (NCCLS broth dilution), unconfirmed VISE isolates; conditions: for MIC: read-out: Minimal Inhibitory Concentration
# Method in brief: (§1)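 Testing followed NCCLS approved-standard dilution methodology in Mueller Hinton II broth across an 11-step two-fold series. Combinations containing novobiocin used a 2.5:1 ratio with the tetracycline partner.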
# [2] = test system: Methicillin-Resistant Staphylococcus aureus Isolates; experiment: MIC assay (NCCLS broth dilution), MRSA clinical isolates; conditions: Staphylococcus aureus; for MIC: read-out: Minimal Inhibitory Concentration
# Method in brief: as §1
# [3] = test system: Linezolid-Resistant Staphylococcus aureus Isolates; experiment: MIC assay (NCCLS broth dilution), LRSA isolates; conditions: Staphylococcus aureus; for MIC: read-out: Minimal Inhibitory Concentration
# Method in brief: as §1
# [4] = test system: Methicillin-Susceptible Staphylococcus aureus Isolates; experiment: MIC assay (NCCLS broth dilution), MSSA clinical isolates; conditions: Staphylococcus aureus; for MIC: read-out: Minimal Inhibitory Concentration
# Method in brief: as §1
# [5] = test system: Vancomycin-intermediate Staphylococcus epidermidis Isolates; experiment: MIC assay (NCCLS broth dilution), VISE isolates; conditions: Staphylococcus epidermidis; for MIC: read-out: Minimal Inhibitory Concentration
# Method in brief: as §1
# [6] = 52 MRSA isolates, combinations at 2.5:1, given as NB/partner
# [7] = 52 MSSA isolates, combinations at 2.5:1, given as NB/partner
compound,measurement,setting,value
"CN(C)[C@@H]1C(O)=C(C(N)=O)C(=O)[C@@]2(O)C(O)=C3C(=O)c4c(O)cccc4[C@@](C)(O)[C@H]3C[C@@H]12 [TE, tetracycline]",MIC Range,"[1]; 3 unconfirmed VISE isolates, combinations at 2.5:1",0.5 to 2 µg/mL
same,MIC,"[1]; Staphylococcus epidermidis, Unconfirmed VISE isolate 2024, 09MAR06",2 µg/mL
same,MIC,"[1]; Staphylococcus epidermidis, Unconfirmed VISE isolate 2025, 09MAR06",0.5 µg/mL
same,MIC,"[1]; Staphylococcus epidermidis, Unconfirmed VISE isolate 2026, 03MAR06",2 µg/mL
same,MIC50,"[1]; Staphylococcus epidermidis, 3 unconfirmed VISE isolates, combinations at 2.5:1",2 µg/mL
same,MIC,"[2]; MRSA isolate 757, 24FEB06",> 16 µg/mL
same,MIC,"[2]; MRSA isolate 758, 03MAR06",1 µg/mL
same,MIC,"[2]; MRSA isolate 758, 24FEB06",0.5 µg/mL
same,MIC,"[2]; MRSA isolate 760, 03MAR06",1 µg/mL
same,MIC,"[2]; MRSA isolate 760, 24FEB06",0.5 µg/mL
same,MIC,"[2]; MRSA isolate 763, 22FEB06",0.5 µg/mL
same,MIC,"[2]; MRSA isolate 765, 22FEB06",0.5 µg/mL
same,MIC,"[2]; MRSA isolate 766, 22FEB06",1 µg/mL
same,MIC,"[2]; MRSA isolate 767, 22FEB06",0.5 µg/mL
same,MIC,"[2]; MRSA isolate 768, 22FEB06",0.5 µg/mL
same,MIC,"[2]; MRSA isolate 769, 22FEB06",> 16 µg/mL
same,MIC,"[2]; MRSA isolate 770, 22FEB06",0.5 µg/mL
same,MIC,"[2]; MRSA isolate 771, 22FEB06",0.5 µg/mL
same,MIC,"[2]; MRSA isolate 772, 22FEB06",0.5 µg/mL
same,MIC,"[2]; MRSA isolate 773, 24FEB06",0.5 µg/mL
same,MIC,"[2]; MRSA isolate 774, 24FEB06",0.5 µg/mL
same,MIC,"[2]; MRSA isolate 775, 24FEB06",0.5 µg/mL
same,MIC,"[2]; MRSA isolate 776, 24FEB06",0.5 µg/mL
same,MIC,"[2]; MRSA isolate 777, 24FEB06",0.5 µg/mL
same,MIC,"[2]; MRSA isolate 778, 24FEB06",0.25 µg/mL
same,MIC,"[2]; MRSA isolate 886, 24FEB06",0.5 µg/mL
same,MIC,"[2]; MRSA isolate 887, 24FEB06",0.5 µg/mL
same,MIC,"[2]; MRSA isolate 888, 24FEB06",0.5 µg/mL
same,MIC,"[2]; MRSA isolate 889, 24FEB06",1 µg/mL
same,MIC,"[2]; MRSA isolate 1004, 24FEB06",16 µg/mL
same,MIC,"[2]; MRSA isolate 1010, 22FEB06",4 µg/mL
same,MIC,"[2]; MRSA isolate 1012, 22FEB06",1 µg/mL
same,MIC,"[2]; MRSA isolate 1013, 22FEB06",0.5 µg/mL
same,MIC,"[2]; MRSA isolate 1014, 22FEB06",0.5 µg/mL
same,MIC,"[2]; MRSA isolate 1015, 22FEB06",0.5 µg/mL
same,MIC,"[2]; MRSA isolate 1016, 22FEB06",0.5 µg/mL
same,MIC,"[2]; MRSA isolate 1017, 22FEB06",0.5 µg/mL
same,MIC,"[2]; MRSA isolate 1021, 22FEB06",0.5 µg/mL
same,MIC,"[2]; MRSA isolate 1022, 22FEB06",0.5 µg/mL
same,MIC,"[2]; MRSA isolate 1023, 22FEB06",0.5 µg/mL
same,MIC,"[2]; MRSA isolate 1024, 22FEB06",0.5 µg/mL
same,MIC,"[2]; MRSA isolate 1025, 22FEB06",0.5 µg/mL
same,MIC,"[2]; MRSA isolate 1135, 22FEB06",0.5 µg/mL
same,MIC,"[2]; MRSA isolate 1136, 22FEB06",0.5 µg/mL
same,MIC,"[2]; MRSA isolate 1137, 22FEB06",0.5 µg/mL
same,MIC,"[2]; MRSA isolate 1138, 22FEB06",1 µg/mL
same,MIC,"[2]; MRSA isolate 1222, 03MAR06",0.5 µg/mL
same,MIC,"[2]; MRSA isolate 1222, 24FEB06",0.5 µg/mL
same,MIC,"[2]; MRSA isolate 1653, 03MAR06",0.25 µg/mL
same,MIC,"[2]; MRSA isolate 1658, 03MAR06",0.5 µg/mL
same,MIC,"[2]; MRSA isolate 1659, 03MAR06",0.25 µg/mL
same,MIC,"[2]; MRSA isolate 1661, 03MAR06",0.5 µg/mL
same,MIC,"[2]; MRSA isolate 1729, 03MAR06",> 16 µg/mL
same,MIC,"[2]; MRSA isolate 1730, 24FEB06",0.5 µg/mL
same,MIC,"[2]; MRSA isolate 2009, 24FEB06",> 16 µg/mL
same,MIC,"[2]; MRSA isolate 2010, 24FEB06",0.5 µg/mL
same,MIC,"[2]; MRSA isolate 2011, 24FEB06",> 16 µg/mL
same,MIC50,[2]; [6],0.5 µg/mL
same,MIC90,[2]; [6],16 µg/mL
same,MIC,"[3]; LRSA isolate 1651, 24FEB06",0.5 µg/mL
same,MIC,"[3]; LRSA isolate 1652, 24FEB06",0.5 µg/mL
same,MIC,"[3]; LRSA isolate 1725, 24FEB06",> 16 µg/mL
same,MIC50,"[3]; 3 LRSA isolates, combinations at 2.5:1",0.5 µg/mL
same,MIC,"[4]; MSSA isolate 133, 03MAR06",0.5 µg/mL
same,MIC,"[4]; MSSA isolate 134, 03MAR06",0.5 µg/mL
same,MIC,"[4]; MSSA isolate 135, 03MAR06",0.5 µg/mL
same,MIC,"[4]; MSSA isolate 753, 22FEB06",0.5 µg/mL
same,MIC,"[4]; MSSA isolate 754, 22FEB06",0.5 µg/mL
same,MIC,"[4]; MSSA isolate 754, 24FEB06",0.5 µg/mL
same,MIC,"[4]; MSSA isolate 755, 22FEB06",0.5 µg/mL
same,MIC,"[4]; MSSA isolate 756, 03MAR06",0.5 µg/mL
same,MIC,"[4]; MSSA isolate 779, 22FEB06",0.5 µg/mL
same,MIC,"[4]; MSSA isolate 780, 03MAR06",0.5 µg/mL
same,MIC,"[4]; MSSA isolate 781, 03MAR06",0.5 µg/mL
same,MIC,"[4]; MSSA isolate 782, 22FEB06",1 µg/mL
same,MIC,"[4]; MSSA isolate 783, 22FEB06",0.5 µg/mL
same,MIC,"[4]; MSSA isolate 784, 22FEB06",16 µg/mL
same,MIC,"[4]; MSSA isolate 785, 22FEB06",0.5 µg/mL
same,MIC,"[4]; MSSA isolate 786, 22FEB06",0.5 µg/mL
same,MIC,"[4]; MSSA isolate 787, 22FEB06",0.5 µg/mL
same,MIC,"[4]; MSSA isolate 788, 22FEB06",0.5 µg/mL
same,MIC,"[4]; MSSA isolate 789, 24FEB06",0.5 µg/mL
same,MIC,"[4]; MSSA isolate 790, 24FEB06",0.5 µg/mL
same,MIC,"[4]; MSSA isolate 791, 24FEB06",0.5 µg/mL
same,MIC,"[4]; MSSA isolate 792, 03MAR06",0.5 µg/mL
same,MIC,"[4]; MSSA isolate 793, 24FEB06",0.5 µg/mL
same,MIC,"[4]; MSSA isolate 794, 24FEB06",0.5 µg/mL
same,MIC,"[4]; MSSA isolate 994, 22FEB06",0.5 µg/mL
same,MIC,"[4]; MSSA isolate 995, 03MAR06",0.5 µg/mL
same,MIC,"[4]; MSSA isolate 996, 22FEB06",0.5 µg/mL
same,MIC,"[4]; MSSA isolate 997, 22FEB06",0.5 µg/mL
same,MIC,"[4]; MSSA isolate 998, 03MAR06",0.5 µg/mL
same,MIC,"[4]; MSSA isolate 999, 22FEB06",> 16 µg/mL
same,MIC,"[4]; MSSA isolate 1000, 24FEB06",0.5 µg/mL
same,MIC,"[4]; MSSA isolate 1001, 24FEB06",0.5 µg/mL
same,MIC,"[4]; MSSA isolate 1002, 24FEB06",0.5 µg/mL
same,MIC,"[4]; MSSA isolate 1003, 03MAR06",0.5 µg/mL
same,MIC,"[4]; MSSA isolate 1005, 24FEB06",0.25 µg/mL
same,MIC,"[4]; MSSA isolate 1006, 24FEB06",0.5 µg/mL
same,MIC,"[4]; MSSA isolate 1007, 24FEB06",0.5 µg/mL
same,MIC,"[4]; MSSA isolate 1008, 24FEB06",0.5 µg/mL
same,MIC,"[4]; MSSA isolate 1009, 24FEB06",0.5 µg/mL
same,MIC,"[4]; MSSA isolate 1131, 24FEB06",0.5 µg/mL
same,MIC,"[4]; MSSA isolate 1132, 03MAR06",0.5 µg/mL
same,MIC,"[4]; MSSA isolate 1133, 24FEB06",0.5 µg/mL
same,MIC,"[4]; MSSA isolate 1134, 24FEB06",0.5 µg/mL
same,MIC,"[4]; MSSA isolate 1654, 03MAR06",0.5 µg/mL
same,MIC,"[4]; MSSA isolate 1656, 03MAR06",0.5 µg/mL
same,MIC,"[4]; MSSA isolate 1662, 03MAR06",0.5 µg/mL
same,MIC,"[4]; MSSA isolate 1663, 03MAR06",1 µg/mL
same,MIC,"[4]; MSSA isolate 1666, 03MAR06",0.5 µg/mL
same,MIC,"[4]; MSSA isolate 1667, 03MAR06",1 µg/mL
same,MIC,"[4]; MSSA isolate 1668, 03MAR06",0.5 µg/mL
same,MIC,"[4]; MSSA isolate 1671, 03MAR06",0.5 µg/mL
same,MIC,"[4]; MSSA isolate 1728, 03MAR06",0.25 µg/mL
same,MIC,"[4]; MSSA isolate 1728, retest 09MAR06",0.25 µg/mL
same,MIC50,[4]; [7],0.5 µg/mL
same,MIC90,[4]; [7],0.5 µg/mL
same,MIC,"[5]; VISE isolate 2020, 09MAR06",> 16 µg/mL
same,MIC,"[5]; VISE isolate 2021, 09MAR06",0.25 µg/mL
same,MIC,"[5]; VISE isolate 2022, 03MAR06",2 µg/mL
same,MIC,"[5]; VISE isolate 2023, 03MAR06",0.5 µg/mL
same,MIC50,"[5]; 4 VISE isolates, combinations at 2.5:1",0.5 µg/mL
